Values quoted from earlier work as cited in patent publication US11980627B2, “Triple pharmaceutical composition for proteinaceous infection” (priority 2019, dated 2024).

Experiments:
[1] = tested on: AD; details: in vivo
[2] = tested on: AD patients; details: twelve months' treatment, alone or in combination
[3] = tested on: patients with AD; details: human, in vivo
[4] = tested on: soluble amyloid protein; details: intravenous
soluble amyloid protein, sequence (P05067 672-711 limits assumed): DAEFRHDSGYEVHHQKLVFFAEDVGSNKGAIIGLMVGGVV

CC(=O)Nc1ccc(O)cc1 [Acetaminophen]
effects on AD [1]: not found to have beneficial effects

CO[C@H]1/C=C/O[C@@]2(C)Oc3c(C)c(O)c4c(O)c(c(/C=N/N5CCN(C)CC5)c(O)c4c3C2=O)NC(=O)/C(C)=C\C=C\[C@H](C)[C@H](O)[C@@H](C)[C@@H](O)[C@@H](C)[C@H](OC(C)=O)[C@@H]1C [rifampin]
effects on cognition or function in AD [2]: no beneficial effects

COc1ccc2cc([C@H](C)C(=O)O)ccc2c1 [Naproxen]
cognitive function in patients with AD [3]: did not improve

CC(=O)Oc1ccccc1C(=O)O [aspirin]
effects on AD [1]: not found to have beneficial effects

Solanezumab: intravenous amyloid immunotherapy; humanized monoclonal antibody to soluble amyloid protein
outcome of amyloid immunotherapy in AD [4]: failure
